Data on six molecules can be found in US4118561A, “7-(Substituted)-7H-pyrrolo[3,2-f]quinazoline-1,3-diamines” (priority 1977, dated 1978).

By MIC is commonly meant the lowest concentration found to suppress growth.

One series has as its system S. aureus Smith. Put plainly: In vitro antibacterial activity (MIC), S. aureus Smith. The note with it: Staphylococcus aureus, 18 h.
A further series has as its system P. vulgaris 6896. Put plainly: In vitro antibacterial activity (MIC), P. vulgaris 6896. To be noted: Proteus vulgaris, 6896, 18 h.
The test system of the next series is E. coli 9637. The series is described as follows: In vitro antibacterial activity (MIC), E. coli 9637. The note with it: Escherichia coli, 9637, 18 h.
Series [1] has as its system Plasmodium berghei KBG 173. Put plainly: Antimalarial blood schizonticidal test in mice. The class given is in vivo, Plasmodium berghei (infected ICR/HA Swiss mice). Details: ΔMST (increase in mean survival time): unit: days. The note with it: s.c.; for ED100 / minimal effective dose: Plasmodium berghei, sc, single dose; for ED100: read-out: Lowest Dose Curing All Mice; for minimal effective dose: read-out: Min. Curing Dose; for Cure/Treat at Min. Curing Dose: at the Min. Curing Dose. From the text:
(§1) In addition, the invention provides compounds which have antimalarial activity in vivo as evidenced by a standard blood schizonticidal test in mice infected with Plasmodium berghei KBG 173.
(§2) Utilizing young ICR/HA Swiss mice and a standard inoculum of Plasmodium berghei KBG 173, it is possible to produce a uniform disease fatal to 100% of untreated animals within 6 to 8 days with a mean survival time of 6.2 days. Test animals weigh from 18 to 22 grams but weight variations in any given experimental or control group are confined to 2-3 grams. All animals in any given test are approximately of the same age. Animals on test are housed in metal-topped plastic cages, given a standard laboratory diet and water ad libitum.
(§3) Test animals receive an intraperitoneal injection of 0.5 ml. of 1:100 dilution of heparinized heart's blood with a minimum of 90% parasitized cells (4 × 10^7 cells), drawn from donor mice infected one week earlier with Plasmodium berghei. The donor strain is maintained by weekly passages in separate groups of mice inoculated with a 0.5 ml. of 1:500 dilution of heparinized heart's blood.
(§4) Test compounds are administered after dissolution or suspension in peanut oil. A single dose is given subcutaneously 72 hours after the mice are infected with Plasmodium berghei. At this time a 10-15 percent parasitemia has developed; the disease is well established but has not produced sufficient debility to alter the response of the host to toxic effects of the drug on test. Since treatment is withheld for three days to permit the infection to become well established and death occurs in untreated controls within 6-8 days, it is felt that this system presents a candidate compound with the maximum challenge. In order to check factors such as changes in the infectivity of Plasmodium berghei or in the susceptibility of the host or to detect technical errors, a group of infected animals treated with pyrimethamine at dose levels producing definite increases in survival time is included in a positive control in every experiment.
(§5) In each experiment test compounds are administered in graded dosages. […] However, if an active drug is toxic for the host, its toxicity may become a limiting factor; continued increases in dose levels also increase the toxic effects and may result in the diminution of survival times. Deaths prior to the sixth day, when untreated controls begin to die, are regarded as nonparasitic and become the basis for toxicity evaluations. […] In calculating mean survival time, toxic deaths and 60-day survivors are not included.
(§6) Compounds are considered active which produce a cure in at least one test animal or which produce significant increases in mean survival times of the treated animals as compared with the mean survival times of untreated controls, provided that no drug related deaths (toxicity) are noted at the active dose.

Series [2] is described as follows: Antimalarial blood schizonticidal test in mice. The class given is in vivo, Plasmodium berghei (infected ICR/HA Swiss mice). Details: ΔMST (increase in mean survival time): unit: days. To be noted: mouse, in vivo, sc, single dose, read-out: Highest Non-Lethal Dose.
Excerpt: as §1, §2, §3, §4, §5, §6

In another series the test system is K. pneumoniae 10031. The series is described as follows: In vitro antibacterial activity (MIC), K. pneumoniae 10031. To be noted: Klebsiella pneumoniae, 10031, 18 h.
Another series concerns N. catarrhalis 8193. The series is described as follows: In vitro antibacterial activity (MIC), N. catarrhalis 8193. The note with it: 18 h.
In another series the test system is S. aureus 53-180. Put plainly: In vitro antibacterial activity (MIC), S. aureus 53-180. The note with it: Staphylococcus aureus, 53180, 18 h.
The test system of another series is S. paratyphi 11737. The series is described as follows: In vitro antibacterial activity (MIC), S. paratyphi 11737. The class given is cell-based. To be noted: Salmonella enterica, 18 h.
[3] abbreviates: infected mice, highest dose with no deaths for any reason.
[4] abbreviates: 336 h, alive on day 14 considered cured, no 60-day data.

≈ marks a conversion by molar mass, not a printed value. Like-named read-outs stand apart in the source and are kept apart here.

On to `Nc1nc(N)c2c(ccc3c2ccn3Cc2cccc(Cl)c2)n1` [Example 7], for which the MIC against S. aureus Smith stood at 1.95 µg/mL (≈ 6.02 µM); against P. vulgaris 6896, 31.3 µg/mL (≈ 96.7 µM); in the series on E. coli 9637 it was 7.81 µg/mL (≈ 24.1 µM); against K. pneumoniae 10031 it was 0.976 µg/mL (≈ 3.01 µM); in the series with N. catarrhalis 8193, 0.244 µg/mL (≈ 0.754 µM); against S. aureus 53-180 it was 0.976 µg/mL (≈ 3.01 µM). Further, the MIC against S. paratyphi 11737 came to 31.3 µg/mL (≈ 96.7 µM). Moreover, the ED100 in series [1] (1440 h, 60-day survivors) stood at 10 mg/kg. Moreover, the minimal effective dose in series [1] (1440 h, 60-day survivors) turned out to be 2.5 mg/kg. Further, the “Cure/Treat at Min. Curing Dose” value in [1] (60-day survivors) was 2/5. Moreover, in [1] (dose 1.25 mg. per kg.), the “ΔMST (increase in mean survival time)” value is reported as 7.7. For the same molecule, the MTD in [2] (setting [3]) was 160 mg/kg.
Take `Nc1nc(N)c2c(ccc3c2ccn3Cc2ccc(Cl)cc2)n1` [Example 8]: the MIC worked out at 0.976 µg/mL (≈ 3.01 µM) in the series with S. aureus Smith; 0.976 µg/mL (≈ 3.01 µM) in the series with P. vulgaris 6896; 0.976 µg/mL (≈ 3.01 µM) in the series with E. coli 9637; 0.122 µg/mL (≈ 0.377 µM) in the series on K. pneumoniae 10031; 0.0038 µg/mL (≈ 0.0117 µM) in the series with N. catarrhalis 8193; 0.244 µg/mL (≈ 0.754 µM) in the series on S. aureus 53-180. Besides, it took 0.976 µg/mL (≈ 3.01 µM) to inhibit growth in the series with S. paratyphi 11737 (MIC). Moreover, the ED100 in [1] (1440 h, 60-day survivors) was determined as 20 mg/kg. The minimal effective dose in [1] (1440 h, 60-day survivors) was determined as 10 mg/kg. For the same molecule, the “Cure/Treat at Min. Curing Dose” value in series [1] (60-day survivors) was 2/5. Also, the “ΔMST (increase in mean survival time)” value in [1] (dose 5 mg. per kg.) was found to be 8.1. Moreover, the MTD in series [2] (setting [3]) is 40 mg/kg.
`Nc1nc(N)c2c(ccc3c2ccn3Cc2c(Cl)cccc2Cl)n1` [Example 9]: the MIC with S. aureus Smith is 250 µg/mL (≈ 698 µM); in the series on P. vulgaris 6896 it was above 250 µg/mL; against E. coli 9637 it was above 250 µg/mL; in the series with K. pneumoniae 10031, 15.6 µg/mL (≈ 43.5 µM); in the series with N. catarrhalis 8193, 0.488 µg/mL (≈ 1.36 µM); against S. aureus 53-180, 250 µg/mL (≈ 698 µM). In the series on S. paratyphi 11737, this molecule showed an MIC above 250 µg/mL. The ED100 in [1] (setting [4]) is 40 mg/kg. For the same molecule, in series [1] (setting [4]), the minimal effective dose amounted to 5 mg/kg. Moreover, in series [1] (alive on day 14 considered cured), the “Cure/Treat at Min. Curing Dose” value was 1/5. Further, the MTD in series [2] (alive on day 14 considered cured, no 60-day data) came out at 160 mg/kg.
Regarding `Nc1nc(N)c2c(ccc3c2ccn3Cc2ccc(Cl)c(Cl)c2)n1` [Example 10], the MIC with S. aureus Smith is 0.976 µg/mL (≈ 2.72 µM); in the series on P. vulgaris 6896, 31.3 µg/mL (≈ 87.4 µM); in the series on E. coli 9637 it was 3.9 µg/mL (≈ 10.9 µM); against K. pneumoniae 10031, 0.488 µg/mL (≈ 1.36 µM); in the series on N. catarrhalis 8193, 0.061 µg/mL (≈ 0.17 µM); in the series with S. aureus 53-180, 0.488 µg/mL (≈ 1.36 µM). This molecule also displayed an MIC against S. paratyphi 11737 of 31.3 µg/mL (≈ 87.4 µM). In addition, the ED100 in series [1] (1440 h, 60-day survivors) amounted to 10 mg/kg. Further, in series [1] (1440 h, 60-day survivors), the minimal effective dose turned out to be 2.5 mg/kg. Besides, in series [1] (60-day survivors), the “Cure/Treat at Min. Curing Dose” value is 2/5. In series [1] (dose 2.5 mg. per kg.), the “ΔMST (increase in mean survival time)” value was found to be 10.2. The MTD in [2] (setting [3]) was 40 mg/kg.
Turning to `Nc1nc(N)c2c(ccc3c2ccn3Cc2ccccc2C(F)(F)F)n1` [Example 11], the MIC was 0.488 µg/mL (≈ 1.37 µM) with S. aureus Smith; 62.5 µg/mL (≈ 175 µM) against P. vulgaris 6896; 1.95 µg/mL (≈ 5.46 µM) against E. coli 9637; 0.122 µg/mL (≈ 0.341 µM) against K. pneumoniae 10031; below 0.0009 µg/mL in the series on N. catarrhalis 8193; 0.244 µg/mL (≈ 0.683 µM) with S. aureus 53-180. Also, the lowest concentration to inhibit growth against S. paratyphi 11737 (MIC) was 3.9 µg/mL (≈ 10.9 µM). Moreover, the ED100 in [1] (1440 h, 60-day survivors) was 10 mg/kg. For the same molecule, the minimal effective dose in series [1] (1440 h, 60-day survivors) came to 1.25 mg/kg. Further, in series [1] (60-day survivors), the “Cure/Treat at Min. Curing Dose” value is on record as 1/5. In addition, the “ΔMST (increase in mean survival time)” value in [1] (dose 0.63 mg. per kg.) is given as 7.3. In series [2] (setting [3]), the MTD was found to be 40 mg/kg.
For the molecule `N#Cc1ccccc1Cn1ccc2c3c(N)nc(N)nc3ccc21` [Example 14], the MIC with S. aureus Smith stood at 0.244 µg/mL (≈ 0.776 µM); in the series on P. vulgaris 6896, 1.95 µg/mL (≈ 6.2 µM); in the series on E. coli 9637 it was 0.244 µg/mL (≈ 0.776 µM); in the series with K. pneumoniae 10031, 0.122 µg/mL (≈ 0.388 µM); with N. catarrhalis 8193 it was 0.061 µg/mL (≈ 0.194 µM); in the series with S. aureus 53-180 it was 0.244 µg/mL (≈ 0.776 µM). This molecule also had an MIC against S. paratyphi 11737 of 0.488 µg/mL (≈ 1.55 µM). The ED100 in series [1] (1440 h, 60-day survivors) is 40 mg/kg. Further, the minimal effective dose in series [1] (1440 h, 60-day survivors) came to 10 mg/kg. Further, the “Cure/Treat at Min. Curing Dose” value in series [1] (60-day survivors) is 1/5. Moreover, the “ΔMST (increase in mean survival time)” value in [1] (dose 10 mg. per kg.) came out at 8.9. Besides, in series [2] (setting [3]), the MTD worked out at 160 mg/kg.
